According to patent publication US20260062443A1 (ALEXION PHARMACEUTICALS, INC., priority 2022, published 2026):

target: T1, Human complement C1s enzyme (Homo sapiens, UniProt P09871); assay: Human C1s enzyme assay; format: biochemical; conditions: human complement C1s enzyme 1.16 nM, substrate Z-L-Lys-SBzl 100 μM, 5 min preincubation; read-out: IC50 (Stars), C1s Inhibiting Activity
T1 sequence (P09871 438-688 limits assumed): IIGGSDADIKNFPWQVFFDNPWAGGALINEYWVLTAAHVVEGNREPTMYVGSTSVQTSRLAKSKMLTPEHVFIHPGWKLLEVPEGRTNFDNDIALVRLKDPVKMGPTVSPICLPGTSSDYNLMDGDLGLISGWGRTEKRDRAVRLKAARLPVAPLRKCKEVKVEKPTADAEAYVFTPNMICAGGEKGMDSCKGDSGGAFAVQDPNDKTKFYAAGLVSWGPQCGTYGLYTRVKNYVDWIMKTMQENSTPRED
T1 sequence (P09871 16-437 partner limits assumed): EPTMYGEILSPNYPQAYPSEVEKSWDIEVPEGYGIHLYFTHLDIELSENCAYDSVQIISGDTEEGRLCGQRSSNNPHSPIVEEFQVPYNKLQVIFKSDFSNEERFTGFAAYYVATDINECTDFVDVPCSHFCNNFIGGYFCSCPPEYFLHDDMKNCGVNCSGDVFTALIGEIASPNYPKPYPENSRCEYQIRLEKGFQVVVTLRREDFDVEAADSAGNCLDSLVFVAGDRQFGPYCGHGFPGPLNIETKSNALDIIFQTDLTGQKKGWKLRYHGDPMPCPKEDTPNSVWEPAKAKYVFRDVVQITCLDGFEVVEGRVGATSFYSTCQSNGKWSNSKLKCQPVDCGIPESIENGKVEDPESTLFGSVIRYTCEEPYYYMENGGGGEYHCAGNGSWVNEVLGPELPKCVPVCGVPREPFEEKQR
How it was run: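 IC50 from nonlinear regression of reaction rates versus compound concentration, with rates taken from A405 recorded at 30 s intervals over 30 min after adding 100 μM Z-L-Lys-SBzl plus 100 μM DTNB. Enzyme was human C1s purified from serum, 1.16 nM, given 5 min compound preincubation at room temperature, pH 7.5 Tris/1 M NaCl.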

Row | Compound | IC50 [nM]
1 | C[C@@H](NC(=O)[C@@H]1C[C@@H](OC(F)F)CN1C(=O)CNC(=O)c1ccc2c(c1)-c1ccccc1C2(F)F)c1cc2cnccc2s1 [Compound 207, (2S,4R)-1-((9,9-difluoro-9H-fluorene-3-carbonyl)glycyl)-4-(difluoromethoxy)-N-((R)-1-(thieno[3,2-c]pyridin-2-yl)ethyl)pyrrolidine-2-carboxamide] | > 1000
2 | C[C@@H](NC(=O)[C@@H]1C[C@@H](OC(F)F)CN1C(=O)CNC(=O)c1ccc2c(c1)Oc1ccccc1S2)c1cc2cnccc2s1 [Compound 208, (2S,4R)-4-(difluoromethoxy)-1-((phenoxathiine-3-carbonyl)glycyl)-N-((R)-1-(thieno[3,2-c]pyridin-2-yl)ethyl)pyrrolidine-2-carboxamide] | < 100
3 | C[C@@H](NC(=O)[C@@H]1C[C@@H](OC(F)F)CN1C(=O)CNC(=O)c1ccc(Oc2ccccc2)cc1)c1cc2cnccc2s1 [Compound 209, (2S,4R)-4-(difluoromethoxy)-1-((4-phenoxybenzoyl)glycyl)-N-((R)-1-(thieno[3,2-c]pyridin-2-yl)ethyl)pyrrolidine-2-carboxamide] | 100 to 1000
4 | O=C(NCC(=O)N1C[C@H](OC(F)F)C[C@H]1C(=O)NCc1cc2c(s1)CNCC2)c1ccc2c(c1)Oc1ccccc1S2 [Compound 210, (2S,4R)-4-(difluoromethoxy)-1-((phenoxathiine-3-carbonyl)glycyl)-N-((4,5,6,7-tetrahydrothieno[2,3-c]pyridin-2-yl)methyl)pyrrolidine-2-carboxamide] | < 100
5 | O=C(NCC(=O)N1CC2(C[C@H]1C(=O)NCc1cc3cnccc3[nH]1)OCCO2)c1ccc2[nH]c3ccccc3c2c1 [Compound 211, (S)-N-((1H-pyrrolo[3,2-c]pyridin-2-yl)methyl)-7-((9H-carbazole-3-carbonyl)glycyl)-1,4-dioxa-7-azaspiro[4.4]nonane-8-carboxamide] | < 100
6 | O=C(NCC(=O)N1CC2(C[C@H]1C(=O)NCc1cc3cnccc3[nH]1)OCCO2)c1ccc2sc3ccccc3c2c1 [Compound 212, (S)-N-((1H-pyrrolo[3,2-c]pyridin-2-yl)methyl)-7-((dibenzo[b,d]thiophene-2-carbonyl)glycyl)-1,4-dioxa-7-azaspiro[4.4]nonane-8-carboxamide] | < 100
7 | O=C(NCC(=O)N1CC2(C[C@H]1C(=O)NCc1cc3cnccc3[nH]1)OCCO2)c1ccc2c(c1)oc1ccccc12 [Compound 213, (S)-N-((1H-pyrrolo[3,2-c]pyridin-2-yl)methyl)-7-((dibenzo[b,d]furan-3-carbonyl)glycyl)-1,4-dioxa-7-azaspiro[4.4]nonane-8-carboxamide] | < 100
8 | O=C(NCC(=O)N1CC[C@H](c2ccccc2)[C@H]1C(=O)NCc1cc2cnccc2[nH]1)c1ccc2c(c1)Oc1ccccc1S2 [Compound 214, (2S,3R)-N-((1H-pyrrolo[3,2-c]pyridin-2-yl)methyl)-1-((phenoxathiine-3-carbonyl)glycyl)-3-phenylpyrrolidine-2-carboxamide] | > 1000
9 | CC(C)c1ccc(Oc2cccc(C(=O)NCC(=O)N3C[C@H](OC(F)F)C[C@H]3C(=O)NCc3cc4cnccc4[nH]3)c2)cc1 [Compound 215, (2S,4R)-N-((1H-pyrrolo[3,2-c]pyridin-2-yl)methyl)-4-(difluoromethoxy)-1-((3-(4-isopropylphenoxy)benzoyl)glycyl)pyrrolidine-2-carboxamide] | < 100
10 | C[C@@H](NC(=O)[C@@H]1C[C@](F)(Cn2ccnn2)CN1C(=O)CNC(=O)c1ccc2c(c1)Oc1ccccc1S2)c1cc2cnccc2[nH]1 [Compound 216, (2S,4R)-4-((1H-1,2,3-triazol-1-yl)methyl)-N-((R)-1-(1H-pyrrolo[3,2-c]pyridin-2-yl)ethyl)-4-fluoro-1-((phenoxathiine-3-carbonyl)glycyl)pyrrolidine-2-carboxamide] | < 100
11 | C[C@@H](NC(=O)[C@@H]1C[C@](F)(Cn2ccnc2)CN1C(=O)CNC(=O)c1ccc2c(c1)Oc1ccccc1S2)c1cc2cnccc2[nH]1 [Compound 217, (2S,4S)-4-((1H-imidazol-1-yl)methyl)-N-((R)-1-(1H-pyrrolo[3,2-c]pyridin-2-yl)ethyl)-4-fluoro-1-((phenoxathiine-3-carbonyl)glycyl)pyrrolidine-2-carboxamide] | < 100
12 | O=C(NCC(=O)N1C[C@H](OC(F)F)C[C@H]1C(=O)NCc1cc2cnccc2[nH]1)c1ccc2oc3ccccc3c2c1 [Compound 218, (2S,4R)-N-((1H-pyrrolo[3,2-c]pyridin-2-yl)methyl)-1-((dibenzo[b,d]furan-2-carbonyl)glycyl)-4-(difluoromethoxy)pyrrolidine-2-carboxamide] | < 100
13 | C[C@@H](NC(=O)[C@@H]1C[C@@H](OC(F)F)CN1C(=O)CNC(=O)c1ccc2oc3ccccc3c2c1)c1cc2cnccc2[nH]1 [Compound 220, (2S,4R)-N-((R)-1-(1H-pyrrolo[3,2-c]pyridin-2-yl)ethyl)-1-((dibenzo[b,d]furan-2-carbonyl)glycyl)-4-(difluoromethoxy)pyrrolidine-2-carboxamide] | < 100
14 | O=C(NCC(=O)N1C[C@H](OC(F)F)C[C@H]1C(=O)NCc1ccc2ncoc2c1)c1ccc2c(c1)Oc1ccccc1S2 [Compound 221, (2S,4R)-N-(benzo[d]oxazol-6-ylmethyl)-4-(difluoromethoxy)-1-((phenoxathiine-3-carbonyl)glycyl)pyrrolidine-2-carboxamide] | > 1000
15 | O=C(NCC(=O)N1C[C@H](OC(F)F)C[C@H]1C(=O)NCc1ccc2scnc2c1)c1ccc2c(c1)Oc1ccccc1S2 [Compound 222, (2S,4R)-N-(benzo[d]thiazol-5-ylmethyl)-4-(difluoromethoxy)-1-((phenoxathiine-3-carbonyl)glycyl)pyrrolidine-2-carboxamide] | > 1000
16 | O=C(NCC(=O)N1C[C@H](OC(F)F)C[C@H]1C(=O)NCc1ccc2c(c1)CCNC2)c1ccc2c(c1)Oc1ccccc1S2 [Compound 223, (2S,4R)-4-(difluoromethoxy)-1-((phenoxathiine-3-carbonyl)glycyl)-N-((1,2,3,4-tetrahydroisoquinolin-6-yl)methyl)pyrrolidine-2-carboxamide] | 100 to 1000

The remaining lines, values ahead:

Row | IC50 [nM] | Compound
17 | > 1000 | O=C(NCC(=O)N1C[C@H](OC(F)F)C[C@H]1C(=O)NCc1ccn2cnnc2c1)c1ccc2c(c1)Oc1ccccc1S2 [Compound 224, (2S,4R)-N-([1,2,4]triazolo[4,3-a]pyridin-7-ylmethyl)-4-(difluoromethoxy)-1-((phenoxathiine-3-carbonyl)glycyl)pyrrolidine-2-carboxamide]
18 | > 1000 | O=C(NCC(=O)N1C[C@H](OC(F)F)C[C@H]1C(=O)NCc1ccc2nncn2c1)c1ccc2c(c1)Oc1ccccc1S2 [Compound 225, (2S,4R)-N-([1,2,4]triazolo[4,3-a]pyridin-6-ylmethyl)-4-(difluoromethoxy)-1-((phenoxathiine-3-carbonyl)glycyl)pyrrolidine-2-carboxamide]
19 | > 1000 | O=C(NCC(=O)N1C[C@H](OC(F)F)C[C@H]1C(=O)NCc1ccc2c(c1)CNCC2)c1ccc2c(c1)Oc1ccccc1S2 [Compound 226, (2S,4R)-4-(difluoromethoxy)-1-((phenoxathiine-3-carbonyl)glycyl)-N-((1,2,3,4-tetrahydroisoquinolin-7-yl)methyl)pyrrolidine-2-carboxamide]
20 | > 1000 | O=C(NCC(=O)N1C[C@H](OC(F)F)C[C@H]1C(=O)NCc1ccc2[nH]ncc2n1)c1ccc2c(c1)Oc1ccccc1S2 [Compound 227, (2S,4R)-N-((1H-pyrazolo[4,3-b]pyridin-5-yl)methyl)-4-(difluoromethoxy)-1-((phenoxathiine-3-carbonyl)glycyl)pyrrolidine-2-carboxamide]
21 | < 100 | O=C(NCC(=O)N1C[C@H](OC(F)F)C[C@H]1C(=O)NCc1ccc2c(c1)CNC2)c1ccc2c(c1)Oc1ccccc1S2 [Compound 228, (2S,4R)-4-(difluoromethoxy)-N-(isoindolin-5-ylmethyl)-1-((phenoxathiine-3-carbonyl)glycyl)pyrrolidine-2-carboxamide]
22 | > 1000 | O=C(NCC(=O)N1C[C@H](OC(F)F)C[C@H]1C(=O)NCc1ccc2cc[nH]c2n1)c1ccc2c(c1)Oc1ccccc1S2 [Compound 229, (2S,4R)-N-((1H-pyrrolo[2,3-b]pyridin-6-yl)methyl)-4-(difluoromethoxy)-1-((phenoxathiine-3-carbonyl)glycyl)pyrrolidine-2-carboxamide]
23 | > 1000 | O=C(NCC(=O)N1C[C@H](OC(F)F)C[C@H]1C(=O)NCc1ccc2[nH]ccc2n1)c1ccc2c(c1)Oc1ccccc1S2 [Compound 230, (2S,4R)-N-((1H-pyrrolo[3,2-b]pyridin-5-yl)methyl)-4-(difluoromethoxy)-1-((phenoxathiine-3-carbonyl)glycyl)pyrrolidine-2-carboxamide]
